According to PubChem BioAssay (NCI):
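Exposure lasted 48 hours, with cells grown in 96-well plates and compounds tested at five concentrations. TGI: total growth inhibition.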 *1 amine or outer side, *2 acyl side, *3 side chain or, on linkers, in order; H or OH if unused. Where a SMILES comes first, the peptide text is derived from it. The star is where a group is joined. γGlu = O=C(O)[CH](CCC(=O)[*:2])N[*:1]; NHOH = ON*

Legend:
Experiment in all cases: growth of human tumour cells (NCI), 48 h
[1] = tested on: U251 CNS
[2] = tested on: KM12 colon
[3] = tested on: OVCAR-4 ovarian
[4] = tested on: MOLT-4 leukemia
[5] = tested on: A549 NSCLC
[6] = tested on: RXF 393 renal
[7] = tested on: CAKI-1 renal
[8] = tested on: NCI-H522 lung
[9] = tested on: SF-268 CNS
[10] = tested on: COLO 205 colon
[11] = tested on: MALME-3M melanoma
[12] = tested on: SK-MEL-5 melanoma
[13] = tested on: RPMI-8226 leukemia
[14] = tested on: SK-MEL-2 melanoma
[15] = tested on: HOP-62 NSCLC
[16] = tested on: UACC-62 melanoma
[17] = tested on: T-47D breast
[18] = tested on: UO-31 renal
[19] = tested on: OVCAR-8 ovarian
[20] = tested on: SR leukemia

Structure (SMILES)	TGI [1] [µM]	TGI [2] [µM]	TGI [3] [µM]	TGI [4] [µM]	TGI [5] [µM]	TGI [6] [µM]	TGI [7] [µM]	TGI [8] [µM]	TGI [9] [µM]	TGI [10] [µM]	TGI [11] [µM]	TGI [12] [µM]	TGI [13] [µM]	TGI [14] [µM]	TGI [15] [µM]	TGI [16] [µM]	TGI [17] [µM]	TGI [18] [µM]	TGI [19] [µM]	TGI [20] [µM]
Cn1cnc2c1c(=O)n(CCNCCO)c(=O)n2C	> 100	> 100	> 100	> 100	> 100	> 100	> 100	> 100	> 100	> 100	> 100	> 100	> 100	> 100	> 100	> 100	> 100	> 100	> 100	–
N#C/C(C(=O)Nc1ccc(Cl)cc1)=C(/N)N1CCOCC1	> 100	> 100	–	> 100	> 100	–	> 100	–	–	> 100	–	> 100	> 100	> 100	> 100	> 100	> 100	> 100	> 100	> 100
CCOC(=O)CNC(=O)C(CCC(=O)NO)NC(=O)CCC(N)C(=O)O (stereo not given) (γGlu-Glu(NHOH)-Gly-OEt; configuration not given here)	> 100	> 100	> 100	> 100	> 100	> 100	> 100	> 100	> 100	> 100	–	> 100	> 100	> 100	> 100	> 100	> 100	> 100	> 100	–
N#CC1=C(N)OC(c2cccc([N+](=O)[O-])c2)C1(C#N)C#N (stereo not given)	> 100	–	–	–	99.6	43.3	26.6	28.8	87	30.7	49.3	31.8	47	40.4	57	81.6	45.1	32.8	92.8	–
CSc1nc(Br)nc2ncn(C3CC(Oc4ccc(C)cc4)C(COc4ccc(C)cc4)O3)c12 (stereo not given)	> 100	> 100	> 100	> 100	> 100	–	> 100	> 100	> 100	> 100	> 100	> 100	> 100	> 100	> 100	> 100	> 100	75.7	> 100	–
CCCCCC1=C2C(c3ccc(OC)cc3)=C(N)C(c3ccc(OC)cc3)=C3NC(=O)C(C=C1)C32 (stereo not given)	> 100	> 100	> 100	> 100	> 100	54.1	> 100	68	38.9	> 100	53.7	> 100	> 100	> 100	> 100	> 100	> 100	> 100	> 100	–
O=c1c2n[nH]nc2nc2n1CC(c1ccccc1)S2 (stereo not given)	> 100	> 100	> 100	> 100	> 100	94.9	77.6	–	> 100	> 100	> 100	> 100	> 100	–	> 100	> 100	> 100	> 100	> 100	–
O=C(Nc1ncc([N+](=O)[O-])s1)c1ccccc1O	> 100	68.7	> 100	> 100	> 87.4	23.6	> 100	28.3	> 75.1	36.1	77.2	37.5	55	35.6	> 59.6	41.7	64	98.1	> 100	–
O=C1N(CN2CCOCC2)CN(CN2CCOCC2)C(=O)N1Cc1ccc(CN2C(=O)N(CN3CCOCC3)CN(CN3CCOCC3)C2=O)cc1	> 100	> 100	> 100	> 100	> 100	–	> 100	> 100	> 100	> 100	–	> 100	89.5	39.8	> 100	85.4	> 100	> 100	> 100	> 100
Cc1c(N=Nc2ccc(Cl)cc2)c(C)n(C2OC(CO)C(O)C(O)C2O)c(=S)c1C#N (stereo not given)	36.4	54.5	50.1	42.3	> 100	71.6	> 100	49.9	52.1	40.6	46.3	21.8	50.3	33.8	36.8	30.5	> 100	57.9	63.9	–
O=C1OCCC[C@H]2O[C@@H](COCc3ccccc3)C[C@@H]12	> 100	> 100	> 100	> 100	> 100	–	> 100	–	> 100	> 100	–	> 100	> 100	> 100	> 100	> 100	> 100	> 100	> 100	> 100
